Experimental data from patent US9890118B2, “Prostamides for the treatment of glaucoma and related diseases” (Allergan, Inc., priority 2004, dated 2018).
Marks after values point to notes of the source that are not given here.

System: dogs (Beagle)
Assay: Intraocular pressure studies by pneumatonometry in conscious dogs
Type: in vivo
Details: topical 25 μL drop, 0.03% drug in 0.1% polysorbate 80:10 mM TRIS, one eye; for Change in Intraocular Pressure (IOP), 0 hrs: 0 hrs (just before drug administration); for Change in Intraocular Pressure (IOP), 2 hrs: 2 hrs after dosing; for Change in Intraocular Pressure (IOP), 4 hrs: 4 hrs after dosing; for Change in Intraocular Pressure (IOP), 6 hrs: 6 hrs after dosing; for Change in Intraocular Pressure (IOP), 24 hrs: 24 hrs after dosing
Description: Intraocular pressure studies were carried out for compounds 1-3 by pneumatonometry in dogs (Beagle) of both sexes (10-15 kg). The animals remained conscious throughout the study and were gently restrained by hand. Drugs were administered topically to one eye as a 25 μL volume drop comprising 0.03% drug, 0.1% polysorbate 80:10 mM TRIS, the other eye received 0.1% polysorbate 80:10 mM TRIS. Proparacaine (0.1%) was used for corneal anesthesia during tonometry. Intraocular pressure was determined just before drug administration and at 2, 4 and 6 hours thereafter on each day of the 5 day study. […] Drug was administered immediately after the first IOP reading.

SMILES	Change in Intraocular Pressure (IOP), 0 hrs	Change in Intraocular Pressure (IOP), 2 hrs	Change in Intraocular Pressure (IOP), 4 hrs	Change in Intraocular Pressure (IOP), 6 hrs	Change in Intraocular Pressure (IOP), 24 hrs
CCCCC[C@H](O)/C=C/[C@@H]1[C@@H](C/C=C\CCCC(=O)NCCc2ccc(OC(C)=O)c(OC(C)=O)c2)[C@@H](O)C[C@H]1O [Compound 1, acetic acid 2-acetoxy-5-(2-{(Z)-7-[(1R,2R,3R,5S)-3,5-dihydroxy-2-((E)-(S)-3-hydroxy-oct-1-enyl)-cyclopenyl]-hept-5-enoylamino}-ethyl)-phenyl ester]	0	−4.4**	−3.4**	−3.1**	−1.4*
CCCCC[C@H](O)/C=C/[C@@H]1[C@@H](C/C=C\CCCC(=O)NCCc2c[nH]c3ccc(O)cc23)[C@@H](O)C[C@H]1O [Compound 3, (Z)-7-[(1R,2R,3R,5S)-3,5-Dihydroxy-2-((E)-(S)-3-hydroxy-oct-1-enyl)-cyclopentyl]-hept-5-enoic acid [2-(5-hydroxy-1H-indol-3-yl)-ethyl]-amide]	0	−3.2*	−5.8*	−7.6**	−2.2
CCCCC[C@H](O)/C=C/[C@@H]1[C@@H](C/C=C\CCCC(=O)NCCc2ccc(O)c(O)c2)[C@@H](O)C[C@H]1O [Compound 2, (Z)-7-[(1R,2R,3R,5S)-3,5-Dihydroxy-2-((E)-(S)-3-hydroxy-oct-1-enyl)-cyclopentyl]-hept-5-enoic acid [2-(3,4-dihydroxy-phenyl)-ethyl]-amide]	0	−3.8*	−3.2**	−3.2**	−1.1*
